From article PMC3988539 (Neuropsychopharmacology : official publication of the …, 2013)
Structures can show the parent of a compound that is named as a salt.

Experiments:
[1] = system: extracellular dopamine in nucleus accumbens; assay: In vivo microdialysis in rat nucleus accumbens, dialysate dopamine; conditions: 6 mg/kg i.p., 4 doses; not different from saline in post hoc tests
[2] = system: extracellular 5-HT in nucleus accumbens; assay type: in vivo, rat; conditions: 6 mg/kg i.p.; for persistent elevation of extracellular 5-HT for the duration of sampling: 4 doses every 2 h, 8 h sampling, % of basal; for extracellular 5-HT after the first dose: first of 4 doses, nucleus accumbens dialysate
[3] = biological target: hSERT (Homo sapiens, UniProt P31645); assay: cell-based; assay type: cell-based; conditions: for concentration at which maximal current was measured: bell-shaped concentration-response curve; for inwardly-directed current compared to 5-HT-induced current: raw current traces, reference 10 μM 5-HT
[4] = biological target: SERT (Rattus norvegicus, UniProt P31652); assay: In vitro [3H]5-HT release from rat brain synaptosomes; assay type: biochemical
[5] = system: [3H]dopamine release, rat caudate synaptosomes; assay: In vitro [3H]dopamine release from rat caudate synaptosomes; assay type: biochemical; conditions: tested at concentrations up to 10 μM (data not shown)

hSERT, sequence (P31645 whole entry): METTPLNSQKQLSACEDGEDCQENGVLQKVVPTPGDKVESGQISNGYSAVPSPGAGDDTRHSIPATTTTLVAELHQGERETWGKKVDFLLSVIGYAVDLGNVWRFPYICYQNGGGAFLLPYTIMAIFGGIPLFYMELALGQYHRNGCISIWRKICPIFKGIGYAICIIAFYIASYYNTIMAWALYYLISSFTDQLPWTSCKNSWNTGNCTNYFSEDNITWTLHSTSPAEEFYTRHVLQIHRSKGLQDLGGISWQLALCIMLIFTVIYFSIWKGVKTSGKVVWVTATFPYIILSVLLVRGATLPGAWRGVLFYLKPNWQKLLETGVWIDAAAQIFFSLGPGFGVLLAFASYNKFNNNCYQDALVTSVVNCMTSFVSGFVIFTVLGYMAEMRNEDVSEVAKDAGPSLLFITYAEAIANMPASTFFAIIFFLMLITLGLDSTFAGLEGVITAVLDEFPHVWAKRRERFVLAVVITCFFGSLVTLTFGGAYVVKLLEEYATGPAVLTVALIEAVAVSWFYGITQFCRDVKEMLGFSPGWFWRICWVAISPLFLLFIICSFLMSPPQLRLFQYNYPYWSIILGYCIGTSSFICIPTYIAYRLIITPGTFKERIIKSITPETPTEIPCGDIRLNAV
SERT, sequence (P31652 whole entry): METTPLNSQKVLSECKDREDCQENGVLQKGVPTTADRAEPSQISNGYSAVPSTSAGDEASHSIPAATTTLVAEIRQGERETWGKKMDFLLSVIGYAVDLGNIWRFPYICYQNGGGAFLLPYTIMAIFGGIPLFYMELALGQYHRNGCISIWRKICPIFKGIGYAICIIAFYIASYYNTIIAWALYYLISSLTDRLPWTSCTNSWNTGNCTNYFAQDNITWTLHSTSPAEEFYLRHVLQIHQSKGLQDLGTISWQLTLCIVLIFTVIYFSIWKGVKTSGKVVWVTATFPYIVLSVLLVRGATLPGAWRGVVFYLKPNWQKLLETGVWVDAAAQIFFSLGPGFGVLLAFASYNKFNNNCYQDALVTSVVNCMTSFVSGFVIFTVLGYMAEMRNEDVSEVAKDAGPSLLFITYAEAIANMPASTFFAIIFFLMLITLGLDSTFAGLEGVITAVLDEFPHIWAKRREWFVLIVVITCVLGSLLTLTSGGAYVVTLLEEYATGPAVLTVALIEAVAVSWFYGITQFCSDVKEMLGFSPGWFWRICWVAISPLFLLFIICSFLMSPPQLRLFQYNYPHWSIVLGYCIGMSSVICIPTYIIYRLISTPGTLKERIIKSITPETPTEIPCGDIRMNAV

Structure (SMILES) | dialysate dopamine [1] | persistent elevation of extracellular 5-HT for the duration of sampling [2] | extracellular 5-HT after the first dose [2] | concentration at which maximal current was measured ([3]; hSERT-expressing oocytes) | current magnitude relative to mCPP, TFMPP or MTA ([3]; maximal currents, hSERT-expressing oocytes) | inwardly-directed current compared to 5-HT-induced current [3] | Emax of 5-HT release [4] | EC50 [3] | releasing [3H]dopamine [5]
CCNC(C)Cc1cccc(C(F)(F)F)c1 (racemic) [fenfluramine, (±)-N-ethyl-1-[3-(trifluoromethyl)phenyl]propan-2-amine hydrochloride] | about 150 % of basal | 500-800% | ~1200 % of basal |  |  |  |  |  | 
CC(N)Cc1cccc(C(F)(F)F)c1.Cl (single isomer, unassigned; (+)) [d-norfenfluramine, (+)-1-[3-(trifluoromethyl)phenyl]propan-2-amine hydrochloride] |  |  |  | 100 µM | up to 2 times | almost as high as the 5-HT-induced current | 100% |  | 
CSc1ccc(CC(C)N)cc1.CSc1ccc(C[C@@H](C)N)cc1 [MTA, 4-Methylthioamphetamine ((2R)-1-[4-(methylsulfanyl)phenyl]propan-2-amine)] |  |  |  | 3 µM |  | comparably small current |  |  | 
Cl.FC(F)(F)c1cccc(N2CCNCC2)c1 [TFMPP, 1-(3-trifluoromethylphenyl)piperazine hydrochloride] | 80 % of basal |  | about 1400 % of basal | 3 µM |  | about half the 5-HT-induced current |  | 2.43 µM | inactive
CCN[C@@H](C)Cc1cccc(C(F)(F)F)c1 [d-fenfluramine, (+)-N-ethyl-1-[3-(trifluoromethyl)phenyl]propan-2-amine hydrochloride] |  |  | ~1200 % of basal |  |  |  |  |  | inactive
Cl.Cl.Clc1cccc(N2CCNCC2)c1 [mCPP, 1-(3-Chlorophenyl)piperazine dihydrochloride] | 150 % of basal | about 500% | about 1000 % of basal | 3 µM |  | about half the 5-HT-induced current |  | 1.94 µM | inactive
